Measured values from paper PMC8084583, “Monobenzone, a Novel and Potent KDM1A Inhibitor, Suppresses Migration of Gastric Cancer Cells” (Frontiers in Pharmacology, 2021).

Target: KDM1A (Homo sapiens, UniProt O60341)
Assay: HRP-coupled fluorometric demethylase assay with recombinant KDM1A (H2O2/HRP counter-screen); dialysis and dilution reversibility; cell thermal shift in MGC-803
Type: biochemical

IC50: 451 nM
Structure (SMILES): Oc1ccc(OCc2ccccc2)cc1 [monobenzone]
